Laboratory results published in patent US20240000826A1, “METHODS FOR THE TREATMENT OF CARDIOVASCULAR DISEASE WITH CYCLODEXTRINS” (Beren Therapeutics P.B.C., priority 2020, published 2024).

Legend:
total cholesterol = total cholesterol level in treated subject; type: in vivo; details: one human subject; IV 500-1,000 mg/kg every 4 weeks as in Example 2; FIGS. 4A-4C
Description: (§1) The increased production of 24S-hydroxycholesterol and 27-hydroxycholesterol enhance cholesterol metabolism, by acting as endogenous ligands for LXR transcription factors responsible for an anti-inflammatory gene signature.

ABCG1 = ABCG1 mRNA level in treated subject; type: in vivo; details: one human subject; IV 500-1,000 mg/kg every 4 weeks as in Example 2; FIGS. 5A-5D
27-hydroxycholesterol = assay: plasma level of 27-hydroxycholesterol in treated subject; type: in vivo; details: one human subject; IV 500-1,000 mg/kg every 4 weeks as in Example 2; FIGS. 4A-4C
Description: as §1

24S-hydroxycholesterol = assay: plasma level of 24S-hydroxycholesterol in treated subject; type: in vivo; details: one human subject; IV 500-1,000 mg/kg every 4 weeks as in Example 2; FIGS. 4A-4C
Description: as §1

cholesterol crystals [1] = assay: cholesterol crystal dissolution capacity (CCDC) assay of plasma from treated subject; type: in vivo; details: one human subject; single-ascending IV doses 500, 750, 1,000, 1,000 mg/kg every 4 weeks; plasma pre-dose, post-dose, 1 hour and 24 hours post-dose; FIG. 3A
Description: (§2) For each dose, whole blood was collected pre-dose, post-dose (line flush), 1 hour post-dose, and 24 hours post-dose. Plasma was separated from the whole blood and subjected to a cholesterol crystal dissolution capacity (CCDC) assay using techniques similar to those described in the literature. The CCDC assay measures the ability of a sample to dissolve cholesterol crystals.

ABCA1 = ABCA1 mRNA level in treated subject; type: in vivo; details: one human subject; IV 500-1,000 mg/kg every 4 weeks as in Example 2; FIGS. 5A-5D
cholesterol crystals [2] = assay: CCDC of pre-dose blood plasma incubated ex vivo with 2-hydroxypropyl-beta-cyclodextrin; set-up: species or system human; details: pre-dose plasma treated ex vivo with 2-hydroxypropyl-beta-cyclodextrin; FIG. 3B
Description: as §2

Substance: 2-hydroxypropyl-beta-cyclodextrin
- total cholesterol levels (total cholesterol): remained stable
- ABCG1 mRNA levels (ABCG1): increased mRNA levels
- plasma level of 27-hydroxycholesterol (27-hydroxycholesterol): increased plasma levels
- plasma level of 24S-hydroxycholesterol (24S-hydroxycholesterol): increased plasma levels
- capability of blood plasma to dissolve cholesterol crystals (CCDC) (cholesterol crystals [1]): increased capability of blood plasma to dissolve cholesterol crystals
- ABCA1 mRNA levels (ABCA1): increased mRNA levels
- capacity of plasma to dissolve cholesterol crystals (cholesterol crystals [2]): increased capacity to dissolve cholesterol crystals
